According to article PMC10704857 (Journal of medicinal chemistry, 2021):

Tests used:
[1] = tested on: Stx2a holotoxin in Vero cells; type: cell-based
cisplatin toxicity = type: cell-based
[2] = target: RTA depurination of yeast ribosomes (Ricinus communis, UniProt P02879); type: biochemical

CCc1ccccc1-c1ccc(C(=O)O)s1 [RU-NT-102, 5-(2-Ethylphenyl)thiophene-2-carboxylic Acid]
inhibition of depurination by Stx2a [1]: did not protect
effect on toxicity of cisplatin (cisplatin toxicity): did not alter
fold improved IC50 relative to CC10501 [2]: 12 fold

O=C(O)c1ccc(-c2cccc3c2OCC3)s1 [RU-NT-105, 5-(2,3-Dihydrobenzofuran-7-yl)thiophene-2-carboxylic Acid]
protection of yeast ribosomes from depurination [2]: not active

Cc1cccc(C)c1-c1ccc(C(=O)O)s1 [RU-NT-93, 5-(2,6-Dimethylphenyl)thiophene-2-carboxylic Acid]
inhibition of depurination by Stx2a [1]: did not protect
effect on toxicity of cisplatin (cisplatin toxicity): did not alter

Cc1ccccc1-c1ccc(C(=O)O)s1 [RU-NT-70, 5-(o-Tolyl)thiophene-2-carboxylic Acid]
fold improved IC50 relative to CC10501 [2]: 10 fold
